Legend:
K562 cells = assay: 5hmC dot blot in K562 cells treated with inhibitor; format: cell-based, human; conditions: 5 μM compound, 24 hours, genomic DNA dot blot, normalized to DMSO
Procedure: Cells were grown in MEM media supplemented with 10% FBS (Gibco by Life Technologies TM, #16140-071) and AntibioticAntimycotic (Gibco by Life Technologies TM, #15240062) at 37° C. under 5% CO2. Solutions of inhibitors were prepared in dimethyl sulfoxide (DMSO) were incubated with cells at the specific concentration and duration prior to collection and extraction of genomic DNA.
For cellular assays, genomic DNA was extracted using DNA Blood/Tissue Kit, denatured, and subjected to dot blotting analysis using antibody against 5hmC (Active Motif, #39769) as previously described.^22 Briefly, 2 μg of purified DNA was denatured at 100° C. and mixed 1:1 with 2M NaOAc. DNA was loaded to the membrane, washed, and blocked with 5% NFM. Primary antibody for 5-hmC was incubated overnight and detected by fluorescence. The DNA spotted membrane was then stained with 0.02% methylene blue in 0.5 M sodium acetate (pH 5.0) for DNA loading control. The same protocol was followed for in vitro assays.
K562 cells, a TET proficient leukemia model, were treated with 5 μM of respective compound for 24 hours. Genomic DNA was extracted and 5hmC levels were quantified via dot blot (FIG. 1A and FIG. 1B).

[1] = target: T1, recombinant human TET2 catalytic domain (Homo sapiens, UniProt Q6N021); assay: In vitro TET2 activity assay, LC-MS/MS quantitation; format: biochemical; conditions: 30 minute incubation, FIG. 3; read-out: IC50, TET2 mediated conversion of 5mC to 5hmC
T1 construct: recombinant human TET1 or TET2 catalytic domain; purchased Active Motif 31418
Procedure: For in vitro TET assays, 10 pmol of 16-mer hemi-methylated synthetic dsDNA oligomer designed after the Rassfla tumor suppressor gene promotor (5′-AATTAGAA[5meC]GCTCCTT3′) was incubated with 2×TET reaction buffer (50 mM HEPES [pH 7.9], 100 mM NaCl, 75 μM Fe(NH4)2(SO4)2, 2 mM ascorbate, 10 μM α-ketoglutarate, 1 mM DTT), recombinant human TET1 or TET2 catalytic domain (0.2 μg, 2.3 pmol, 115 nM) and 5% DMSO (or inhibitor in DMSO) on a 20 μL scale. Timing was achieved by withholding protein until the ‘start’ of the incubation window. Reactions were completed on a dry block at 37° C. for 30 minutes. Reactions were terminated at the ‘end’ of the incubation window by transferring reaction tubes to dry ice to snap-freeze the reaction until all replicates were completed. […] HPLC-ESI-MS/MS quantitation of 5mC and 5hmC.
Quantitation of 5hmC is based on methodology previously described in Seiler et al., with slight modification.^21 Dried enzymatic reaction samples were reconstituted with mQ-water and spiked with 1 pmol each of 5-Methyl-2′-deoxycytidine-d3 and 5-(Hydroxymethyl)-2′deoxycytidine-d3. […] Quantitation was completed monitoring MS/MS transitions m/z 242.1 [M+H^+]→m/z 126.1 [M-deoxyribose+H^+] for 5meC, m/z 245.2 [M+H^+]→m/z 129.0 [M-deoxyribose+H^+] for 5-d3-meC, m/z 258.1 [M+H^+]→m/z 142.1 [M-deoxyribose+H^+] for 5hmC, m/z 261.1 [M+H^+]→m z 145.1 [M-deoxyribose+H^+] for 5-d3-hmC. […]

[2] = target: T2, recombinant human TET1 catalytic domain (Homo sapiens, UniProt Q8NFU7); assay: In vitro TET1 activity assay, LC-MS/MS quantitation of 5hmC; format: biochemical; conditions: for reduced hmC production in comparison to DMSO control: 30 minute incubation; for TET inhibition (in words): TET1 catalytic domain, hemimethylated oligomer substrate, FIG. 2
T2 construct: enzymatically active catalytic domain of human TET1; purchased Active Motif 31417
T2 sequence (Q8NFU7 1418-2136 limits assumed): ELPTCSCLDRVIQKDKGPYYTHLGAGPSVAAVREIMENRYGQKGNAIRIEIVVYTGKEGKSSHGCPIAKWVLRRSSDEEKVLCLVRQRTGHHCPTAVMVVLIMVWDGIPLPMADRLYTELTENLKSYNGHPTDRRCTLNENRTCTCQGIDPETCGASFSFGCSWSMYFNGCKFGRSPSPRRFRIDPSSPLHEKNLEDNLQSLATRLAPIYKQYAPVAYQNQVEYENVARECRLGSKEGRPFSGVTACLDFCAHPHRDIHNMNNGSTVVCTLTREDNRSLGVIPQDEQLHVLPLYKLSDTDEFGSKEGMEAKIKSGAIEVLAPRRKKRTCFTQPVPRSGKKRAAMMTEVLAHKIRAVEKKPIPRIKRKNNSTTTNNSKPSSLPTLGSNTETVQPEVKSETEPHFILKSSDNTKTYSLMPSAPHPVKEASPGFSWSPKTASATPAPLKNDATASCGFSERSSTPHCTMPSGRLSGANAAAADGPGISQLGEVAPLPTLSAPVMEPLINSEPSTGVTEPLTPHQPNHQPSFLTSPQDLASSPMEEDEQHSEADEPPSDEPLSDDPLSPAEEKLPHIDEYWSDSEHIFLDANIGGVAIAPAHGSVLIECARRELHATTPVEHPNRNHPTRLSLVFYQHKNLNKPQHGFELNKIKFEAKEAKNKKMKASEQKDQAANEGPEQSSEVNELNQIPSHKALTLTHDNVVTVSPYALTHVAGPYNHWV
Procedure: For in vitro TET assays, 10 pmol of 16-mer hemi-methylated synthetic dsDNA oligomer designed after the Rassfla tumor suppressor gene promotor (5′-AATTAGAA[5meC]GCTCCTT3′) was incubated with 2×TET reaction buffer (50 mM HEPES [pH 7.9], 100 mM NaCl, 75 μM Fe(NH4)2(SO4)2, 2 mM ascorbate, 10 μM α-ketoglutarate, 1 mM DTT), recombinant human TET1 or TET2 catalytic domain (0.2 μg, 2.3 pmol, 115 nM) and 5% DMSO (or inhibitor in DMSO) on a 20 μL scale. Timing was achieved by withholding protein until the ‘start’ of the incubation window. Reactions were completed on a dry block at 37° C. for 30 minutes. Reactions were terminated at the ‘end’ of the incubation window by transferring reaction tubes to dry ice to snap-freeze the reaction until all replicates were completed. Upon completion, all samples were heat-inactivated at 90° C. for 10 minutes and then dried entirely in SpeedVac concentrator. Sample were then prepared for LCMS or dot blot analysis. HPLC-ESI-MS/MS quantitation of 5mC and 5hmC.
Quantitation of 5hmC is based on methodology previously described in Seiler et al., with slight modification.^21 Dried enzymatic reaction samples were reconstituted with mQ-water and spiked with 1 pmol each of 5-Methyl-2′-deoxycytidine-d3 and 5-(Hydroxymethyl)-2′deoxycytidine-d3. Nucleotide digestion enzyme mix and buffer were added per product guidelines on a 20 μL scale. Samples were digested for 60 min at 37° C. on a dry block. Following digestion, samples were filtered on nanosep 10K Omega filters. The samples were then dried entirely and resuspended in 100 μL mQ-water for offline HPLC cleanup to enrich 5hmC. An Atlantis T3 column (Waters, 4.6×150 mm, 3 μm) was eluted at a flow of 0.9 mL/min with a linear gradient previously described of 5 mM NH4CHO2 buffer, pH 4.0 (A) and MeOH (B). Fractions containing 5meC and 5hmC were collected and pooled before analysis by isotope dilution HPLC-ESI-MS/MS. Pooled samples were dried and reconstituted in 2 mM ammonium formate buffer (NH4CHO2) with a Dionex Ultimate 3000UHPLC (Thermo Fisher) interfaced with a Thermo TSQ Quantis mass spectrometer (Thermo Fisher) flowing 2 mM NH4CHO2 (A) and ACN (B) at 15 μL/min through a Zorbax SB-C18 column (Agilent, 0.5×150 mm, 3 μm) with the gradients as previously described. 5meC and 5-d3-meC eluted at 5.1 minutes while 5hmC and 5-d3-hmC eluted at 3.5 minutes. Quantitation was completed monitoring MS/MS transitions m/z 242.1 [M+H^+]→m/z 126.1 [M-deoxyribose+H^+] for 5meC, m/z 245.2 [M+H^+]→m/z 129.0 [M-deoxyribose+H^+] for 5-d3-meC, m/z 258.1 [M+H^+]→m/z 142.1 [M-deoxyribose+H^+] for 5hmC, m/z 261.1 [M+H^+]→m z 145.1 [M-deoxyribose+H^+] for 5-d3-hmC. […]
Compounds 13b and 15 were taken forward and incubated with recombinant TET1 and TET2 protein to further evaluate their potential TET inhibitory activity. The compounds 13b and 15 were taken forward and evaluated in an in vitro TET activity assay with the enzymatically active catalytic domain of human TET1 using a hemimethylated synthetic oligomer substrate. Following a 30 minute enzymatic incubation time in the presence or absence of inhibitor, the reactions were halted through denaturation, and levels of 5mC 5hmC were quantified via LCMS/MS via direct isotope dilution (Seiler, C. L., et al., Biochemistry 2018, 57 (42), 6061-6069).

SMILES	lowered the relative levels of 5hmC (K562 cells) [%]	IC50 [1] [mM]	reduced hmC production in comparison to DMSO control ([2]; 10 μM inhibitor) [%]	reduced hmC production in comparison to DMSO control ([2]; 100 μM inhibitor) [%]	reduced hmC production in comparison to DMSO control ([2]; 500 μM inhibitor) [%]	TET inhibition (in words) [2]
COC(=O)/C=C/C(=O)N(O)CCC#Cc1cn([C@H]2C[C@H](O)[C@@H](CO)O2)c(=O)nc1N [Compound 11, methyl (E)-4-((4-(4-amino-1-((2R,4S,5R)-4-hydroxy-5-(hydroxymethyl)-tetrahydrofuran-2-yl)-2-oxo-1,2-dihydropyrimidin-5-yl)but-3-yn-1-yl)(hydroxy)amino)-4-oxobut-2-enoate]	30±8	–	–	–	–	–
Nc1nc(=O)n([C@H]2C[C@H](O)[C@@H](CO)O2)cc1C#CCCN(O)C(=O)CCC(=O)O [Compound 13b, 4-((4-(4-amino-1-((2R,4S,5R)-4-hydroxy-5-(hydroxymethyl)tetrahydrofuran-2-yl)-2-oxo-1,2-dihydropyrimidin-5-yl)but-3-yn-1-yl)(hydroxy)amino)-4-oxobutanoic acid]	55±20	~1	22±5	30±4	85±3	dose-dependent TET inhibition
Nc1nc(=O)n([C@H]2C[C@H](O)[C@@H](CO)O2)cc1C#CCCNC(=O)/C=C/C(=O)O [Compound 14, (E)-4-((4-(4-amino-1-((2R,4S,5R)-4-hydroxy-5-(hydroxymethyl)tetrahydrofuran-2-yl)-2-oxo-1,2-dihydropyrimidin-5-yl)but-3-yn-1-yl)amino)-4-oxobut-2-enoic acid]	26±21	–	–	–	–	–
Nc1nc(=O)n([C@H]2C[C@H](O)[C@@H](CO)O2)cc1C#CCCN(O)C(=O)/C=C/C(=O)O [Compound 15, (E)-4-((4-(4-amino-1-((2R,4S,5R)-4-hydroxy-5-(hydroxymethyl)tetrahydrofuran-2-yl)-2-oxo-1,2-dihydropyrimidin-5-yl)but-3-yn-1-yl)(hydroxy)amino)-4-oxobut-2-enoic acid]	47±45	–	–	–	–	dose-dependent TET inhibition
